The test system of series [1] is recombinant NL4-3 virus (nef section replaced with Renilla luciferase gene) in MT-2 cells. The series can be described thus: HIV cell culture assay (antiviral activity, luciferase readout). It is filed as cell-based. To be noted: Renilla, NL43, MT-2 cells infected for 4-5 days with recombinant NL4-3 Renilla luciferase virus. As to the method:
HIV cell culture assay—MT-2 cells, 293T cells and the proviral DNA clone of NL4-3 virus were obtained from the NIH AIDS Research and Reference Reagent Program. MT-2 cells were propagated in RPMI 1640 media supplemented with 10% heat inactivated fetal bovine serum (FBS), 100 jag/ml penicillin G and up to 100 units/mL streptomycin. The 293T cells were propagated in DMEM media supplemented with 10% heat inactivated FBS, 100 μg/mL penicillin G and 100 μg/mL streptomycin. A recombinant NL4-3 proviral clone, in which a section of the nef gene was replaced with the Renilla luciferase gene, was used to make the reference virus used in these studies. The recombinant virus was prepared through transfection of the recombinant NL4-3 proviral clone into 293T cells using Transit-293 Transfection Reagent from Mirus Bio LLC (Madison, Wis.). Supernatant was harvested after 2-3 days and the amount of virus present was titered in MT-2 cells using luciferase enzyme activity as a marker by measuring luciferase enzyme activity. Luciferase was quantitated using the EnduRen Live Cell Substrate from Promega (Madison, Wis.). Antiviral activities of compounds toward the recombinant virus were quantified by measuring luciferase activity in MT-2 cells infected for 4-5 days with the recombinant virus in the presence of serial dilutions of the compound.
(Johnson V A, Byington R T. Infectivity Assay. In Techniques in HIV Research. ed. Aldovini A, Walker B D. 71-76. New York: Stockton Press. 1990).

Series [2] in a line: Compound cytotoxicity, XTT-based colorimetric assay. The following applies: human, uninfected MT2 cells, day 4, XTT. In kind it is cell-based. As to the method: Compound cytotoxicity and the corresponding CC50 values were determined using the same protocol as described in the antiviral assay except that uninfected cells were used. Cytotoxicity was assessed on day 4 in uninfected MT2 cells by using a XTT (2,3-bis[2-Methoxy-4-nitro-5-sulfophenyl]-2H-tetrazolium-5-carboxyanilide inner salt)-based colorimetric assay (Sigma-Aldrich, St Louis, Mo.).
Background: Tetrazolium dyes change colour on reduction, which living cells bring about.

Consider `COc1ccc(N(C)C(=O)[C@H](Cc2ccccc2)NC(=O)NS(=O)(=O)N2CCCCC2)cc1` [JB-14], for which the EC50 (in general, the concentration giving half of the maximal effect) in series [1] amounted to 690 nM. Besides, the CC50 (usually the concentration at which the toxic effect on the cells reaches its halfway point) at 4 days in series [2] is above 100000 nM.
On the same counts, the results for `CN(C(=O)[C@H](Cc1cc(F)cc(F)c1)NC(=O)N1CCN(C)S1(=O)=O)c1ccc2scnc2c1` [VN-28] are 250 nM and above 100000 nM.
The like results for `CN(C(=O)[C@H](Cc1cc(F)cc(F)c1)NC(=O)NS(=O)(=O)NC1CC1)c1ccc2scnc2c1` [CA-142] were, in that order, 40 nM and above 100000 nM.
On the same counts, the results for `COc1ccc(N(C)C(=O)[C@H](Cc2ccccc2)NC(=O)NS(=O)(=O)NCc2cc(C)on2)cc1` [JB-59] are 1860 nM and above 100000 nM.
Regarding `CCOc1ccc(N(CC)C(=O)[C@H](Cc2ccccc2)NC(=O)NS(=O)(=O)N2CCc3cc(C)ccc32)cc1` [JB-70], the EC50 in series [1] came to 100 nM. In series [2], this molecule had a CC50 at 4 days above 33300 nM.
On the same counts, the results for `COc1ccc(N(C)C(=O)[C@H](Cc2ccccc2)NC(=O)NS(=O)(=O)Nc2ccccc2Oc2ccccc2)cc1` [CA-33] are 2040 nM and above 33300 nM.
As for `CN(C(=O)[C@H](Cc1cc(F)cc(F)c1)NC(=O)NS(=O)(=O)N1CCc2cccnc21)c1ccc(CC(F)F)cc1` [BB-24], in series [1], the EC50 came out at 10 nM. This molecule displayed a cytotoxic concentration (CC50) at 4 days in series [2] above 33300 nM.
On the same counts, the results for `Cc1cc(N(C)C(=O)[C@H](Cc2cc(F)cc(F)c2)NC(=O)NS(=O)(=O)N2CCc3cccnc32)cnc1C` [GW-20] are 230 nM and above 100000 nM.
On the same counts, the results for `CN(C(=O)[C@H](Cc1cc(F)cc(F)c1)NC(=O)NS(=O)(=O)N1CCc2cccnc21)c1ccc(OC(F)(F)F)cc1` [GW-7] are 30 nM and 16800 nM.
On the same counts, the results for `COc1ccc(N(C)C(=O)[C@H](Cc2cc(F)cc(F)c2)NC(=O)NS(=O)(=O)N2CCC[C@H]2C(=O)N(C)C)cc1` [BB-21] are 750 nM and above 100000 nM.
For `CN(C(=O)[C@H](Cc1cc(F)cc(F)c1)NC(=O)NS(N)(=O)=O)c1ccc2scnc2c1` [VN-25], the half-maximal effective concentration (EC50) in series [1] came to 150 nM. Further, the CC50 at 4 days in series [2] was 79600 nM.
On the same counts, the results for `COc1ccc(N(C)C(=O)[C@H](Cc2ccccc2)NC(=O)NS(=O)(=O)N(C)c2cccc(OC)c2)cc1` [JB-34] are 80 nM and above 100000 nM.
Regarding `COc1ccc(N(C)C(=O)[C@H](Cc2ccccc2)NC(=O)NS(=O)(=O)Nc2cccnc2)cc1` [JB-21], the half-maximal effective concentration (EC50) in series [1] turned out to be 1780 nM. This molecule came in with a 50% cytotoxic concentration (CC50) at 4 days in series [2] above 100000 nM.
On the same counts, the results for `COc1ccc(N(C)C(=O)[C@H](Cc2ccccc2)NC(=O)NS(=O)(=O)Nc2ccc3ccccc3c2)cc1` [CA-5] are 180 nM and above 33300 nM.
Turning to `COc1ccc(N(C)C(=O)[C@H](Cc2ccccc2)NC(=O)NS(=O)(=O)NC(C)c2cccc(C)n2)cc1` (stereo partly drawn) [JB-58], in series [1], the concentration for a half-maximal effect (EC50) is 690 nM. Further, in series [2], the cytotoxic concentration (CC50) at 4 days is above 100000 nM.
On the same counts, the results for `CN(C(=O)[C@H](Cc1cc(F)cc(F)c1)NC(=O)NS(=O)(=O)NCc1cccnc1)c1ccc2scnc2c1` [CA-135] are 1530 nM and above 100000 nM.
On the same counts, the results for `CN(C(=O)[C@H](Cc1cc(F)cc(F)c1)NC(=O)NS(=O)(=O)N1CCc2cccnc21)c1ccc(OC(F)F)cc1` [BB-35] are 10 nM and 97200 nM.
Take `CN(C(=O)[C@H](Cc1cc(F)cc(F)c1)NC(=O)NS(=O)(=O)N(C)Cc1ccccc1)c1ccc2scnc2c1` [CA-139]: the concentration for a half-maximal effect (EC50) in series [1] worked out at 220 nM. Also, the 50% cytotoxic concentration (CC50) at 4 days in series [2] was above 100000 nM.
On the same counts, the results for `COc1ccc(N(C)C(=O)[C@H](Cc2cc(F)cc(F)c2)NC(=O)NS(=O)(=O)N2CCCCC2)cc1F` [AW-4] are 480 nM and above 100000 nM.
On the same counts, the results for `COc1ccc(N(C)C(=O)[C@H](Cc2ccccc2)NC(=O)NS(=O)(=O)n2ccc3cccnc32)cc1` [JB-77] are 450 nM and above 100000 nM.
The like results for `CN(C(=O)[C@H](Cc1cc(F)cc(F)c1)NC(=O)NS(=O)(=O)N1CCC(c2ccccc2)C1)c1ccc2scnc2c1` (mixture of isomers) [CA-152] were, in that order, 550 nM and above 100000 nM.
For `COc1ccc(N(C)C(=O)[C@H](Cc2ccccc2)NC(=O)NS(=O)(=O)NCc2cncn2C)cc1` [JB-55], the EC50 in series [1] is 14800 nM. Also, the CC50 at 4 days in series [2] is above 100000 nM.
The like results for `COc1ccc(N(C)C(=O)[C@H](Cc2ccccc2)NC(=O)NS(=O)(=O)Nc2ccc(C(C)C)cc2)cc1` [CA-21] were, in that order, 80 nM and above 100000 nM.
As for `CN(C(=O)[C@H](Cc1cc(F)cc(F)c1)NC(=O)NS(=O)(=O)N1CCCC1=O)c1ccc2scnc2c1` [BB-33], the EC50 in series [1] was 450 nM. In series [2], this molecule yielded a CC50 at 4 days above 100000 nM.
On the same counts, the results for `CN(C)C(=O)[C@@H]1CCCN1S(=O)(=O)NC(=O)N[C@@H](Cc1cc(F)cc(F)c1)C(=O)N(C)c1ccc2scnc2c1` [BB-22] are 380 nM and above 100000 nM.
The like results for `CN(C(=O)[C@H](Cc1cc(F)cc(F)c1)NC(=O)NS(=O)(=O)N1CC[C@H](O)C1)c1ccc2scnc2c1` [VN-26] were, in that order, 110 nM and 20000 nM.
In the case of `COc1ccc(N(C)C(=O)[C@H](Cc2ccccc2)NC(=O)NS(=O)(=O)Nc2cc(Cl)cc(Cl)c2)cc1` [CA-49], in series [1], the concentration for a half-maximal effect (EC50) amounted to 180 nM. This molecule also came in with a CC50 at 4 days in series [2] above 33300 nM.
For `COc1ccc(N(C)C(=O)[C@H](Cc2ccccc2)NC(=O)NS(=O)(=O)Nc2ccc3[nH]cnc3c2)cc1` [JB-36], the EC50 in series [1] came out at 2260 nM. Also, the CC50 at 4 days in series [2] is above 100000 nM.
The like results for `COc1ccc(N(C)C(=O)[C@H](Cc2ccccc2)NC(=O)NS(=O)(=O)n2c(C)cc3ccc(OC)cc32)cc1` [CA-64] were, in that order, 440 nM and 62400 nM.
The like results for `CN(C(=O)[C@H](Cc1cc(F)cc(F)c1)NC(=O)NS(=O)(=O)N1CCCCC1)c1ccc2scnc2c1` [VN-24] were, in that order, 90 nM and above 100000 nM.
The like results for `CN(C(=O)[C@H](Cc1cc(F)cc(F)c1)NC(=O)NS(=O)(=O)Nc1ccccn1)c1ccc2scnc2c1` [CA-114] were, in that order, 100 nM and above 100000 nM.
`COc1cccc(N(C)S(=O)(=O)NC(=O)N[C@@H](Cc2cc(F)cc(F)c2)C(=O)N(C)c2ccc3scnc3c2)c1` [CA-119]: in series [1], the half-maximal effective concentration (EC50) worked out at 60 nM. This molecule also gave a CC50 at 4 days in series [2] above 33300 nM.
On the same counts, the results for `CN(C(=O)[C@H](Cc1cc(F)cc(F)c1)NC(=O)NS(=O)(=O)N1CCc2ccccc21)c1ccc2scnc2c1` [ZY-8] are 20 nM and 88000 nM.
The like results for `CN(C(=O)[C@H](Cc1ccccc1)NC(=O)NS(=O)(=O)N1CCc2cccnc21)c1ccc2scnc2c1` [ZY-2] were, in that order, 50 nM and above 53000 nM.
The like results for `CN(C(=O)[C@H](Cc1cc(F)cc(F)c1)NC(=O)NS(=O)(=O)N1CCC(O)CC1)c1ccc2scnc2c1` [CA-155] were, in that order, 200 nM and above 100000 nM.
As to `Cc1nc2c(F)c(N(C)C(=O)[C@H](Cc3cc(F)cc(F)c3)NC(=O)NS(=O)(=O)N3CCc4cccnc43)ccc2s1` [GW-21], the half-maximal effective concentration (EC50) in series [1] was 80 nM. For the same molecule, the CC50 at 4 days in series [2] was above 100000 nM.
The like results for `Cc1nc2cc(N(C)C(=O)[C@H](Cc3cc(F)cc(F)c3)NC(=O)NS(=O)(=O)N3CCc4cccnc43)ccc2s1` [ZY-23] were, in that order, 80 nM and above 100000 nM.
On to `COc1ccc(N(C)C(=O)[C@H](Cc2ccccc2)NC(=O)NS(=O)(=O)NCc2nccs2)cc1` [JB-43], for which the EC50 in series [1] is 760 nM. Moreover, the half-maximal cytotoxic concentration (CC50) at 4 days in series [2] was above 100000 nM.
The like results for `CN(C(=O)[C@H](Cc1cc(F)cc(F)c1)NC(=O)N(C)S(=O)(=O)N1CCc2cccnc21)c1ccc2scnc2c1` [BB-25] were, in that order, 530 nM and above 33300 nM.
The like results for `COc1ccc(N(C)C(=O)[C@H](Cc2ccccc2)NC(=O)NS(=O)(=O)NC(C)c2csc(C)n2)cc1` (stereo partly drawn) [JB-64] were, in that order, 680 nM and above 100000 nM.
On the same counts, the results for `COc1ccc(N(C)C(=O)[C@H](Cc2ccccc2)NC(=O)NS(=O)(=O)N2CCc3ccccc32)cc1` [JB-1] are 110 nM and above 100000 nM.
Regarding `COc1ccc(N(C)C(=O)[C@H](Cc2ccccc2)NC(=O)NS(=O)(=O)Nc2ccccc2F)cc1` [CA-7], in series [1], the EC50 was found to be 140 nM. In series [2], this molecule gave a CC50 at 4 days above 100000 nM.
On the same counts, the results for `Cc1cc(N(C)C(=O)[C@H](Cc2cc(F)cc(F)c2)NC(=O)NS(=O)(=O)N2CCc3cccnc32)ccc1F` [BB-17] are 70 nM and 91200 nM.
The like results for `COc1ccc(N(C)C(=O)[C@H](Cc2ccccc2)NC(=O)NS(=O)(=O)N(c2ccccc2)C(C)C)cc1` [CA-25] were, in that order, 1010 nM and above 33300 nM.
The like results for `COc1ccc(N(C)C(=O)[C@H](Cc2cc(F)cc(F)c2)NC(=O)NS(=O)(=O)N2CCc3cccnc32)cc1` [BB-31] were, in that order, 10 nM and above 33300 nM.
